In publication PMC5290327, “SC83288 is a clinical development candidate for the treatment of severe malaria” (Nature Communications, 2017):
Read-outs that look alike come from different tables or passages of the source.

Columns and labels:
P. falciparum strain 3D7 = experiment: Efficacy in the Pf/NSG mouse model; type: in vivo, Plasmodium falciparum; conditions: 3D7, humanized NSG mouse
P. falciparum strain W2 = experiment: Efficacy in the Pf/NSG mouse model; type: in vivo, Plasmodium falciparum; conditions: W2, humanized NSG mouse
ANKK1 = biological target: T1, ANKK1 (Homo sapiens, UniProt Q8NFD2); experiment: KINOMEscan; type: binding; conditions: read-out: Remaining enzyme activity
T1 construct: purchased Ambit (DiscoverX) KINOMEscan; Cerep
Protocol: (§1) The KINOMEscan was carried out by Ambit (San Diego, USA) according to a previously established protocol. The experiment was based on a competition binding assay that quantitatively measures the ability of a compound to compete with an immobilized, active-site directed ligand. The assay is performed by combining three components: DNA-tagged kinase; immobilized ligand; and a test compound. The ability of the test compound to compete with the immobilized ligand is measured via quantitative PCR of the DNA tag.
(§2) For most assays, kinase-tagged T7 phage strains were grown in parallel in 24-well blocks in an Escherichia coli host derived from the BL21 strain. E. coli were grown to log-phase and infected with T7 phage from a frozen stock and incubated with shaking at 32 °C until lysis (90–150 min). The lysates were centrifuged (6,000g) and filtered (0.2 μm) to remove cell debris. The remaining kinases were produced in HEK-293 cells (Sigma Aldrich, catalogue number: 85120602) and subsequently tagged with DNA for quantitative PCR detection. […] The liganded beads were blocked with excess biotin and washed with blocking buffer (SeaBlock (Pierce), 1% bovine serum albumin, 0.05% Tween 20 and 1 mM dithiothreitol) to remove unbound ligand and to reduce non-specific phage binding. […] SC81458 was prepared as 40x stock in 100% DMSO and directly diluted into the assay to a final concentration of 10 μM. All reactions were performed in polypropylene 384-well plates in a final volume of 0.04 ml. […] The kinase concentration in the eluates was measured by quantitative PCR.

AURKB = biological target: T2, AURKB (Homo sapiens, UniProt Q96GD4); experiment: KINOMEscan; type: binding; conditions: read-out: Remaining enzyme activity
T2 construct: purchased Ambit (DiscoverX) KINOMEscan; Cerep
Protocol: as §1, §2

BIKE = biological target: T3, BIKE (Homo sapiens, UniProt Q9NSY1); experiment: KINOMEscan; type: binding; conditions: read-out: Remaining enzyme activity
T3 construct: purchased Ambit (DiscoverX) KINOMEscan; Cerep
Protocol: as §1, §2

CDC2L1 = biological target: T4, CDC2L1 (Homo sapiens, UniProt P21127); experiment: KINOMEscan; type: binding; conditions: read-out: Remaining enzyme activity
T4 construct: purchased Ambit (DiscoverX) KINOMEscan; Cerep
Protocol: as §1, §2

CLK3 = biological target: T5, CLK3 (Homo sapiens, UniProt P49761); experiment: KINOMEscan; type: binding; conditions: read-out: Remaining enzyme activity
T5 construct: purchased Ambit (DiscoverX) KINOMEscan; Cerep
Protocol: as §1, §2

JNK2 = biological target: T6, JNK2 (Homo sapiens, UniProt P45984); experiment: KINOMEscan; type: binding; conditions: read-out: Remaining enzyme activity
T6 construct: purchased Ambit (DiscoverX) KINOMEscan; Cerep
Protocol: as §1, §2

LIMK1 = biological target: T7, LIMK1 (Homo sapiens, UniProt P53667); experiment: KINOMEscan; type: binding; conditions: read-out: Remaining enzyme activity
T7 construct: purchased Ambit (DiscoverX) KINOMEscan; Cerep
Protocol: as §1, §2

LIMK2 = biological target: T8, LIMK2 (Homo sapiens, UniProt P53671); experiment: KINOMEscan; type: binding; conditions: read-out: Remaining enzyme activity
T8 construct: purchased Ambit (DiscoverX) KINOMEscan; Cerep
Protocol: as §1, §2

MARK2 = biological target: T9, MARK2 (Homo sapiens, UniProt Q7KZI7); experiment: KINOMEscan; type: binding; conditions: read-out: Remaining enzyme activity
T9 construct: purchased Ambit (DiscoverX) KINOMEscan; Cerep
Protocol: as §1, §2

MET(M1250T) = biological target: T10, MET(M1250T) (Homo sapiens, UniProt P08581, M1250T); experiment: KINOMEscan; type: binding; conditions: read-out: Remaining enzyme activity
T10 construct: purchased Ambit (DiscoverX) KINOMEscan; Cerep
Protocol: as §1, §2

MST2 = biological target: T11, MST2 (Homo sapiens, UniProt Q13188); experiment: KINOMEscan; type: binding; conditions: read-out: Remaining enzyme activity
T11 construct: purchased Ambit (DiscoverX) KINOMEscan; Cerep
Protocol: as §1, §2

NLK = biological target: T12, NLK (Homo sapiens, UniProt Q9UBE8); experiment: KINOMEscan; type: binding; conditions: read-out: Remaining enzyme activity
T12 construct: purchased Ambit (DiscoverX) KINOMEscan; Cerep
Protocol: as §1, §2

PAK6 = biological target: T13, PAK6 (Homo sapiens, UniProt Q9NQU5); experiment: KINOMEscan; type: binding; conditions: read-out: Remaining enzyme activity
T13 construct: purchased Ambit (DiscoverX) KINOMEscan; Cerep
Protocol: as §1, §2

PFTAIRE2 = biological target: T14, PFTAIRE2 (Homo sapiens, UniProt Q96Q40); experiment: KINOMEscan; type: binding; conditions: read-out: Remaining enzyme activity
T14 construct: purchased Ambit (DiscoverX) KINOMEscan; Cerep
Protocol: as §1, §2

PIK3CA(Q546K) = biological target: T15, PIK3CA(Q546K) (Homo sapiens, UniProt P42336, Q546K); experiment: KINOMEscan; type: binding; conditions: read-out: Remaining enzyme activity
T15 construct: purchased Ambit (DiscoverX) KINOMEscan; Cerep
Protocol: as §1, §2

PIK4Cb = biological target: T16, PIK4Cb (Homo sapiens, UniProt Q9UBF8); experiment: KINOMEscan; type: binding; conditions: read-out: Remaining enzyme activity
T16 construct: purchased Ambit (DiscoverX) KINOMEscan; Cerep
Protocol: as §1, §2

PLK2 = biological target: T17, PLK2 (Homo sapiens, UniProt Q9NYY3); experiment: KINOMEscan; type: binding; conditions: read-out: Remaining enzyme activity
T17 construct: purchased Ambit (DiscoverX) KINOMEscan; Cerep
Protocol: as §1, §2

ROCK2 = biological target: T18, ROCK2 (Homo sapiens, UniProt O75116); experiment: KINOMEscan; type: binding; conditions: read-out: Remaining enzyme activity
T18 construct: purchased Ambit (DiscoverX) KINOMEscan; Cerep
Protocol: as §1, §2

TTK = biological target: T19, TTK (Homo sapiens, UniProt P33981); experiment: KINOMEscan; type: binding; conditions: read-out: Remaining enzyme activity
T19 construct: purchased Ambit (DiscoverX) KINOMEscan; Cerep
Protocol: as §1, §2

CYP3A4 = CYP3A4 (Homo sapiens, UniProt P08684); experiment: CYP inhibition, human liver microsomes; conditions: 10 µM
Dd2 trophozoites = experiment: In vitro speed of action, clearance of trophozoites (Vial protocol); type: cell-based, Plasmodium falciparum; conditions: 500 nM
PK study [1] = type: in vivo, rat; conditions: rat i.v. 2 mg kg^−1; for half-life: rat, 2 mg/kg
Protocol: (§3) On the treatment day, all animals were weighed and the dosing volume was calculated for each individual animal according to its actual body weight. All animal were dosed once. Blood samples were taken at different time points and plasma was collected after centrifugation (10,000g, 10 min, 4 °C). Plasma samples were analysed by LC–MS/MS. […] All relevant observations were recorded. The PK studies in cynomolgus monkeys and beagle dogs were performed by the Laboratory of Pharmacology and Toxicology (LPT), Hamburg, and PK and toxicity studies in mice and rats were performed by the 4SC Discovery GmbH, Munich. PK parameters were obtained by a non-compartment analysis, using Kinetica 4.1 (Thermo Scientific).

PK study [2] = type: in vivo; conditions: dog i.v. 1.7 mg kg^−1; for half-life: dog
Protocol: as §3

[3] = CYP3A4a, midazolam to 1'-OH-midazolam
[4] = CYP3A4b, testosterone to 6β-OH-testosterone
[5] = CYP3A4c, omeprazole to omeprazole sulphone
[6] = CYP3A4d, omeprazole to 3-OH-omeprazole

Chain of CYP3A4 (P08684 whole entry): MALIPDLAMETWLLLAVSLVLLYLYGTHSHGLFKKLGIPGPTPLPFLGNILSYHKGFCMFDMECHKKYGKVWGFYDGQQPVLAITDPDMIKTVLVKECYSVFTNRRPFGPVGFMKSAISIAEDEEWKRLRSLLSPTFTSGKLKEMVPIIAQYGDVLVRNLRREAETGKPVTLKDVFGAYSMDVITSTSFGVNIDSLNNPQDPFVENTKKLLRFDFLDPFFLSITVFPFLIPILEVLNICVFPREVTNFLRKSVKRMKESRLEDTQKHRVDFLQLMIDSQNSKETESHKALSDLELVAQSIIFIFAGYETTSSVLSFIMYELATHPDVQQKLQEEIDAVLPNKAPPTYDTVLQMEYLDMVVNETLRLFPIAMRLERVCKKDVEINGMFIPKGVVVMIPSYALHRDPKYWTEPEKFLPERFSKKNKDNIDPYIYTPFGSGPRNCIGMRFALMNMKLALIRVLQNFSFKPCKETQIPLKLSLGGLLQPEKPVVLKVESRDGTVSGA
T13 sequence (Q9NQU5 whole entry): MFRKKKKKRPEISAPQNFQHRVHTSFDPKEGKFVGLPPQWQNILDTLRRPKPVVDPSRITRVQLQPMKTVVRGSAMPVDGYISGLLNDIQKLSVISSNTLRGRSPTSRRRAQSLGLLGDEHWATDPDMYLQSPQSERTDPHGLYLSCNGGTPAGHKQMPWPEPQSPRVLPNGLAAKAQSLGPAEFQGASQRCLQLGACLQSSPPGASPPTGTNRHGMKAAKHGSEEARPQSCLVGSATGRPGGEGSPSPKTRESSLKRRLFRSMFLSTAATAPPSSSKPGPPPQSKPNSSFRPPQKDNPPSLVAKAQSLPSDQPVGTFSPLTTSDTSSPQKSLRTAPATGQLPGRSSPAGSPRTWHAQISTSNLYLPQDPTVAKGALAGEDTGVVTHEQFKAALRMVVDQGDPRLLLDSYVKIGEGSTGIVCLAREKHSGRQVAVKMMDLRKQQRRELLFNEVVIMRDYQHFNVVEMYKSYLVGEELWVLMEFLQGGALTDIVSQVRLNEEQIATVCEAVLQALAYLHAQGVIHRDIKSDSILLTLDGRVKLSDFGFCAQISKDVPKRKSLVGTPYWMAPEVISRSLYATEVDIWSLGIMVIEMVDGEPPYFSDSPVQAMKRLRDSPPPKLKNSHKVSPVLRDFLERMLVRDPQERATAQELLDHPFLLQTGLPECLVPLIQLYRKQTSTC
T18 sequence (O75116 whole entry): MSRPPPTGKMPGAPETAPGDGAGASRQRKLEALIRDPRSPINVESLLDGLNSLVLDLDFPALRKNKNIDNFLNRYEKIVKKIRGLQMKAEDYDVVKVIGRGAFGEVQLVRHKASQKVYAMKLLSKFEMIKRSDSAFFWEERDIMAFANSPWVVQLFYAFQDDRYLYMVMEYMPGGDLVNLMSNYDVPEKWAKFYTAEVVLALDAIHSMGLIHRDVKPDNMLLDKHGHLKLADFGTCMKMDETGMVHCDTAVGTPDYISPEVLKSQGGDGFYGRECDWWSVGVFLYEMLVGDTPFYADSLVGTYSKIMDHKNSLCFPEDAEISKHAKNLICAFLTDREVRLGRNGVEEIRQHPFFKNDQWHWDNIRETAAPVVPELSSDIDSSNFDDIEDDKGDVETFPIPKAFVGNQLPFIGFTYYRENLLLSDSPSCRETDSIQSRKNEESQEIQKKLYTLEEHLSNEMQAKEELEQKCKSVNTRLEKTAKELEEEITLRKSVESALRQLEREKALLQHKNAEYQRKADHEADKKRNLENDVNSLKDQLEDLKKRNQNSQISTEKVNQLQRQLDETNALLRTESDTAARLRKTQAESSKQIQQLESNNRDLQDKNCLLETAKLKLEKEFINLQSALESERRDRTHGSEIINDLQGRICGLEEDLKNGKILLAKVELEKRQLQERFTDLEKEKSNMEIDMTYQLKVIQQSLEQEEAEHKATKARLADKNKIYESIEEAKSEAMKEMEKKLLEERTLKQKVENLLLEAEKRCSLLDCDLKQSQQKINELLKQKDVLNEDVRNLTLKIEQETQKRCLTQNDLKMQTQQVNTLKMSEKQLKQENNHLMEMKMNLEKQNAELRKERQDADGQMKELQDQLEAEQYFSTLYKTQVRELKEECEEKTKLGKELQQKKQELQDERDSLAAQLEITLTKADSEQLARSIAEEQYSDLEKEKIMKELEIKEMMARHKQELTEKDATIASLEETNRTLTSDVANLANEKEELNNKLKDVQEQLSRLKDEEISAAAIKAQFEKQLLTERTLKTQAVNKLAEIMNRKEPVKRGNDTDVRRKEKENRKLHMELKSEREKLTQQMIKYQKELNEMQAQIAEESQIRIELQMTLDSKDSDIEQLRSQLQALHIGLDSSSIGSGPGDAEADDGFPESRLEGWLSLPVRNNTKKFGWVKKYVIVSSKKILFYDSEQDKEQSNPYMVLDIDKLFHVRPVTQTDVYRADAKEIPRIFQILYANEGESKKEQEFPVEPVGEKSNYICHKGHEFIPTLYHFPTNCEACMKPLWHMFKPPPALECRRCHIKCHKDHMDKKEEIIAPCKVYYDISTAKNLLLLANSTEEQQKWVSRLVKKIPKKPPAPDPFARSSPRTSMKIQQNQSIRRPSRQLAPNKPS
T5 sequence (P49761 whole entry): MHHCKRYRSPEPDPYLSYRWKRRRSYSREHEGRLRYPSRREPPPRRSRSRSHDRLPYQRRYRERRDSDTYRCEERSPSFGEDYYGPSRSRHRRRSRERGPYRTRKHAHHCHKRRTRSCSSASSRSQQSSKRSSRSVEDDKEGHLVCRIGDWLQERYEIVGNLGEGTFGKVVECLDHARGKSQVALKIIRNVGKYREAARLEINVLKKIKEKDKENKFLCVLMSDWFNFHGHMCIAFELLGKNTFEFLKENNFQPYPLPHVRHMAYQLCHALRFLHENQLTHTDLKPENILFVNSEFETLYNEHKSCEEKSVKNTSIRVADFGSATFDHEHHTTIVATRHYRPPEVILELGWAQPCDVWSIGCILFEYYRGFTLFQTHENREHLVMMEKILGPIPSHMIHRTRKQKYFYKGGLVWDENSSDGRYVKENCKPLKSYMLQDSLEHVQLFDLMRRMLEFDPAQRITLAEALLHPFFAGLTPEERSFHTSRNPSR
T3 sequence (Q9NSY1 whole entry): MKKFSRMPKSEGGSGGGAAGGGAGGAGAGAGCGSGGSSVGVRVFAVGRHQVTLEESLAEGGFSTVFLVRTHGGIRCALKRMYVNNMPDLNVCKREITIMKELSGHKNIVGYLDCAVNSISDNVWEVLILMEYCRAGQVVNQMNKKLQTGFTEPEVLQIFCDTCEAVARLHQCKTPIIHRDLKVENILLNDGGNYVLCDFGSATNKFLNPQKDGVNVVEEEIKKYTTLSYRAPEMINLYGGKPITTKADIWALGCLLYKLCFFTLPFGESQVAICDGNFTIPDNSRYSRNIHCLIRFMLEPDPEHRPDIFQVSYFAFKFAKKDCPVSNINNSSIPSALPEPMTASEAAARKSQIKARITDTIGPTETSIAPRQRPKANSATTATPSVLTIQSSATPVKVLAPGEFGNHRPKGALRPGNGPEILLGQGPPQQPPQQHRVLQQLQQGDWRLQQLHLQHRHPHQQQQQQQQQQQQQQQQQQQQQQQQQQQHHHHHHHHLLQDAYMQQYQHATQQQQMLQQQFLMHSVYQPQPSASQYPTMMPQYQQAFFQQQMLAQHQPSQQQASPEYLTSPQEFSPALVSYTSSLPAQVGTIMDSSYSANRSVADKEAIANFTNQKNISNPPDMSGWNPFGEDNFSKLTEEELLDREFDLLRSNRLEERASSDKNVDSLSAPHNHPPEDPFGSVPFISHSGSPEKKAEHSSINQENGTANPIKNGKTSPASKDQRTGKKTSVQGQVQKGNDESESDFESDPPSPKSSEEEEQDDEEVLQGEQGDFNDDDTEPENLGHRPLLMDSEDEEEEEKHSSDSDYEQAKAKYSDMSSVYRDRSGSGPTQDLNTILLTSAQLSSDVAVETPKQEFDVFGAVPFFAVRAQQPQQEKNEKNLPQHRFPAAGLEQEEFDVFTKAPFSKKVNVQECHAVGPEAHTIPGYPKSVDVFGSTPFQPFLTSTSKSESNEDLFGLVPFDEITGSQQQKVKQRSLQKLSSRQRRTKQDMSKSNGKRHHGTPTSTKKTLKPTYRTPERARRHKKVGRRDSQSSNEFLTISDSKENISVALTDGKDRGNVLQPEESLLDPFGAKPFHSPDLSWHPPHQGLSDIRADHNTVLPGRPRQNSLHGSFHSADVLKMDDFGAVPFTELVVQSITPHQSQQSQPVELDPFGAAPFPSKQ
T14 sequence (Q96Q40 whole entry): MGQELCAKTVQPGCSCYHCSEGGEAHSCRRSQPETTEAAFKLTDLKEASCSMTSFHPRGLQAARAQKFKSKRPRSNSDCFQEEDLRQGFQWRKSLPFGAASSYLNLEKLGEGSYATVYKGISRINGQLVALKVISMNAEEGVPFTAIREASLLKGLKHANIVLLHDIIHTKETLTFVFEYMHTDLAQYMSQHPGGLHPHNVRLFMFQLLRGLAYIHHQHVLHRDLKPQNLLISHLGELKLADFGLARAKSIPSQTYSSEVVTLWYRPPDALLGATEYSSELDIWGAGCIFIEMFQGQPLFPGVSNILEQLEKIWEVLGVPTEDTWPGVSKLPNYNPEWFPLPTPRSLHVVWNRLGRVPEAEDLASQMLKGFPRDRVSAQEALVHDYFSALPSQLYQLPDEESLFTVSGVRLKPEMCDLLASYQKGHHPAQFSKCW
T2 sequence (Q96GD4 whole entry): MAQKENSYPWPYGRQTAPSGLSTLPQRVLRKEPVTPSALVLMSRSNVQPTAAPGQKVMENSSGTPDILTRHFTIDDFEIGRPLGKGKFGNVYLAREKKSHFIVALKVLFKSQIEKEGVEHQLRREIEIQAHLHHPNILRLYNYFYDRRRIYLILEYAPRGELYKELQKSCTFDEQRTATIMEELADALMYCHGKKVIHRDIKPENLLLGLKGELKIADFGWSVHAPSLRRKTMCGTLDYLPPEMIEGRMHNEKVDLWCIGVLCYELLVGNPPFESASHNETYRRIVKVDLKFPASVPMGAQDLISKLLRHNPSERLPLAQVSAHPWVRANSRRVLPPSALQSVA

CCCCN1CCN(C(=N)c2cccc(NC(=O)Nc3ccc(S(=O)(=O)NCc4ccc(S(N)(=O)=O)cc4)cc3)c2)CC1 [SC81458, 4-(3-(3-((4-butylpiperazin-1-yl)(imino)methyl)phenyl)ureido)-N-(4-sulfamoylbenzyl) benzenesulfonamide]
In vivo logPRR (P. falciparum strain 3D7): 3.2 | In vivo logPRR (P. falciparum strain W2): 5.3 | remaining binding at 10 µM (ANKK1): 99% | remaining binding at 10 µM (AURKB): 78% | remaining binding at 10 µM (BIKE): 85% | remaining binding at 10 µM (CDC2L1): 100% | remaining binding at 10 µM (CLK3): 100% | remaining binding at 10 µM (JNK2): 97% | remaining binding at 10 µM (LIMK1): 76% | remaining binding at 10 µM (LIMK2): 100% | remaining binding at 10 µM (MARK2): 100% | remaining binding at 10 µM (MET(M1250T)): 100% | remaining binding at 10 µM (MST2): 100% | remaining binding at 10 µM (NLK): 95% | remaining binding at 10 µM (PAK6): 95% | remaining binding at 10 µM (PFTAIRE2): 100% | remaining binding at 10 µM (PIK3CA(Q546K)): 100% | remaining binding at 10 µM (PIK4Cb): 100% | remaining binding at 10 µM (PLK2): 100% | remaining binding at 10 µM (ROCK2): 76% | remaining binding at 10 µM (TTK): 91% | Remaining enzyme activity (CYP3A4; [3]): 74% | Remaining enzyme activity (CYP3A4; [4]): 77% | Remaining enzyme activity (CYP3A4; [5]): 66% | Remaining enzyme activity (CYP3A4; [6]): 98%

COC(=O)N1CCN(C(=N)c2cccc(NC(=O)Nc3ccc(S(=O)(=O)NCc4ccc(S(N)(=O)=O)cc4)cc3)c2)CC1 [SC83288, methyl 4-(imino(3-(3-(4-(N-(4-sulfamoylbenzyl)sulfamoyl)phenyl)ureido)phenyl)methyl) piperazine-1-carboxylate]
exposure time to clear a 0.5% parasitemia (Dd2 trophozoites): ≤ 3 ± 1 h | AUC(0-inf) (PK study [1]; plasma, iv): 1420 ng·h/mL | C0 (PK study [1]; plasma, iv): 4380 ng/mL | Cmax (PK study [1]; plasma, iv): 3280 ng/mL | Tmax (PK study [1]; plasma, iv): 5 min | clearance (PK study [1]; plasma, iv): 23.5 mL/min/kg | MRT last (PK study [1]; plasma, iv, read-out: MRT0-t): 75 min | VC (PK study [1]): 0.457 L/kg | half-life (PK study [1]; plasma, iv, read-out: t1/2 effective): 52 min | half-life (PK study [1]; plasma, iv, read-out: t1/2 initial): 9 min | half-life (PK study [1]; plasma, iv, read-out: t1/2 terminal): 625 min | half-life (PK study [2]; beagle, plasma, iv, read-out: t1/2 effective): 35 min | half-life (PK study [2]; beagle, plasma, iv, read-out: t1/2 initial): 12 min | half-life (PK study [2]; beagle, plasma, iv, read-out: t1/2 terminal): 90 min | AUC(0-inf) (PK study [2]; beagle, plasma, iv): 2260 ng·h/mL | C0 (PK study [2]; beagle, plasma, iv): 5580 ng/mL | Cmax (PK study [2]; beagle, plasma, iv): 4560 ng/mL | Tmax (PK study [2]; beagle, plasma, iv): 5 min | clearance (PK study [2]; beagle, plasma, iv): 14.7 mL/min/kg | MRT last (PK study [2]; beagle, plasma, iv, read-out: MRT0-t): 50.4 min | VC (PK study [2]): 0.359 L/kg | Remaining enzyme activity (CYP3A4; [3]): 92% | Remaining enzyme activity (CYP3A4; [4]): 88% | Remaining enzyme activity (CYP3A4; [5]): 87% | Remaining enzyme activity (CYP3A4; [6]): 92%
